Usually IC50 stands for the concentration needed to halve the response being measured. The Km is the concentration of substrate that gives half-maximal velocity. The kcat is the number of substrate molecules converted per active site and unit of time at saturation. A word on the Vmax: it is the top rate of the reaction or transport when substrate is in excess.

One data set has as its system PC9 (adenocarcinoma). Description: Cell-Titer Glo cytotoxicity assay, PC9 cells. Type of data set: cell-based. The settings on record: for IC50: Homo sapiens, PC-9, 48 hours of drug treatment, ≥ 6 drug dilutions (3-fold). How it is done:
(§1) Prodrug/Drug IC50 and trans and cis-toxicity assays with secreted enzyme were performed using Cell-Titer Glo (Promega). Cells were analyzed in triplicate wells of a 96-well dish and equivalent volume of Cell-Titer Glo reagent was added to each well. Following a 10-minute incubation at room temperature samples were transferred to White 96-well Optiplate (Perkin Elmer) and luminescence was measured on a SpectraMax M2 plate reader (Molecular Devices). Data were analyzed with SoftMax Pro software.

In the next data set the test system is HCC827 (adenocarcinoma). The experiment in a line: Cell-Titer Glo cytotoxicity assay, HCC827 cells. Type of data set: cell-based. The settings on record: for IC50: Homo sapiens, 48 hours of drug treatment, ≥ 6 drug dilutions (3-fold); for cytotoxicity (cell viability): HCC827, 48 hrs. How it is done: FIG. 3 provides the results of HCC827 cells incubated for 48 hrs. with or without CPG2 in the presence of APdMG-Glu where cell viability was measured by Cell-Titre Glo, according to the working examples. The viability of the cells incubated with the active version of the drug (O-(3-aminopropyl)-des-morpholino-gefitinib) are shown for comparison.
as §1

Data set [1] has as its target T1, CPG2 (Pseudomonas sp., UniProt P06621).
T1 construct: HA (C); His (C); host or cells: E. coli
The experiment in a line: Amplex Red glutamate release assay with recombinant CPG2. Type of data set: biochemical. The settings on record: incubated with recombinant CPG2, FIG. 2. How it is done: FIG. 2 provides the results of incubating APdMG-Glu, an embodiment of a prodrug compound of the present technology, with increasing concentration of recombinant CPG2 where glutamate release was measured in an Amplex Red assay, according to the working examples.
Recombinant CPG2 enzyme was incubated with prodrugs in CPG2 reaction buffer (1M TrisHCL, 2 mM ZnCl2) for 2 hr at 37° C. and the enzyme/prodrug mixture was combined 1:1 with Amplex Red™ Glutamate Oxidase Assay mixture (Thermo cat # A12221). Following 30 min at 37° C. fluorescent emission at 590 nm was measured on a SpectraMax M2 plate reader (Molecular Devices). Data were analyzed with SoftMax Pro software.

Data set [2] addresses T1, CPG2. It is filed as biochemical. The settings on record: for Vmax: disappearance of substrate and/or appearance of product. The source says:
CPG2 proteins were produced and purified by GenScript. Constructs contain c-terminal HA and His epitope tags and were purified by nickel columns.

[3] abbreviates: substrate of CPG2, RapidFire-MS.

SMILES strings stand for the structures. Where two headings read alike, the source gives them in different places.

T1 sequence (P06621 23-415): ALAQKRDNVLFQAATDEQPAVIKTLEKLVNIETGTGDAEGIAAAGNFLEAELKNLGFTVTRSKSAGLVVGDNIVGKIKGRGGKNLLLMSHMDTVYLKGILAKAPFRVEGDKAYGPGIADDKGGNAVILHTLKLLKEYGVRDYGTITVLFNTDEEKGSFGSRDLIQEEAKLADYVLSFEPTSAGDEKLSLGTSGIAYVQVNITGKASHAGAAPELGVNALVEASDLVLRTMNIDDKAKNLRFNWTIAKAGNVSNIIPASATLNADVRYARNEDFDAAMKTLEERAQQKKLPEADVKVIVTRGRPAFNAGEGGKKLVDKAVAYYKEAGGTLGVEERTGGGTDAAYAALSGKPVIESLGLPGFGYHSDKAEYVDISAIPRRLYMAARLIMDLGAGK

As for `COc1cc2ncnc(Nc3ccc(F)c(Cl)c3)c2cc1OCCCN` [APdMG, 6-(3-Aminopropoxy)-N-(3-chloro-4-fluorophenyl)-7-methoxyquinazolin-4-amine], the IC50 worked out at 210 nM in the data set with PC9 (adenocarcinoma) and 20 nM with HCC827 (adenocarcinoma) (HCC827).
Regarding `COc1cc2ncnc(Nc3ccc(F)c(Cl)c3)c2cc1OCCCNC(=O)OCc1ccc(NC(=O)N[C@@H](CCC(=O)O)C(=O)O)cc1` [APdMG-Glu, ((4-((((3-((4-((3-chloro-4-fluorophenyl)amino)-7-methoxyquinazolin-6-yl)oxy)propyl)carbamoyl)oxy)methyl)phenyl)carbamoyl)-L-glutamic acid], the figures for the IC50 with PC9 (adenocarcinoma) and in the data set on HCC827 (adenocarcinoma) (HCC827) were 240 nM and 110 nM, respectively. The Selective index in the data set with PC9 (adenocarcinoma) (prodrug vs active drug) was 6; in the data set on HCC827 (adenocarcinoma) (HCC827, prodrug vs active drug) it was 5.5. For the same compound, the “cleavage of the glutamate moiety (glutamate release)” value on CPG2 [1] is “confirm cleavage of the glutamate moiety”. Also, the “cytotoxicity (cell viability)” value with HCC827 (adenocarcinoma) (plus recombinant CPG2, FIG. 3) is listed as “cytotoxicity comparable to that of the parent drug gefitinib”; with HCC827 (adenocarcinoma) (prodrug alone without CPG2, FIG. 3) it was “not APdMG-Glu alone”. In addition, the Km on CPG2 [2] (setting [3]) is 2.25 µM. For the same compound, the kcat at CPG2 [2] (setting [3]) was 0.137 s⁻¹. Further, the Vmax at CPG2 [2] (setting [3]) is 0.10 µM/s.
As to `CN(Cc1cnc2nc(N)nc(N)c2n1)c1ccc(C(=O)N[C@@H](CCC(=O)O)C(=O)O)cc1` [methotrexate, reference compound], on CPG2 [2], the Km came to 9.45 µM. Also, at CPG2 [2] (setting [3]), the kcat amounted to 10.36 s⁻¹ and the Vmax was 0.39 µM/s.

Source of the values: patent publication US20230099106A1, “PRODRUGS USEFUL IN ADOPTIVE CELL THERAPY” (Memorial Sloan Kettering Cancer Center, priority 2020, published 2023).
